Experimental data from US20250312336A1, “Compositions And Methods For Treating Cancer With Calcium Channel Inhibitors” (Institute for Cancer Research d/b/a The Research Institute …, priority 2024, published 2025).
Entries after “also recorded” stand apart in the source; their conditions may differ.

Tests used:
KPCN349 cells = assay: Trogocytosis of BODIPY-cholesterol labeled CAF membranes by KPCN349 cells with PtdSer masking; type: cell-based, murine; details: 100 nM Annexin-V or 100 nM Zn-DPA; CAFs pre-treated 2 h, maintained in co-culture
Experimental: (§1) To label cellular membranes, pairs of lipophilic fluorescent dyes were used according to the manufacturer's instructions in the following combinations: 1) adherent CAFs were stained with 1 μM PKH67 (Sigma-Aldrich), Panc-1 were stained in suspension with 10 μM CellTracker™ orange CMCMR (Thermo Fisher Scientific); 2) CAFs labeled with 0.5 μM BODIPY-cholesterol (Topfluor Cholesterol, #DO-016545, Avanti Polar Lipids) dissolved in 0.1 mM methyl-beta-cyclodextrin (#C4555, Sigma) with 2 μM cholesterol (#C8667, Sigma-Aldrich) in MEM media at 37° C. for 30 min in suspension; murine or human (Panc-1) PDAC cells were stained in suspension with CPD670 (#65-0840-85, Thermo Fisher Scientific). After labeling, CAFs were co-incubated for the indicated time intervals with PDAC cells in 12-well culture plates at ratio of 2:1 in 0.5% DMEM media. Co-cultures of CAFs and PDAC cells for 3 minutes on ice minutes were used as negative controls. In experiments assessing the effect of extracellular calcium on trogocytosis, cells were co-cultured in Phosphate Buffered Saline (PBS) containing calcium and magnesium (D8662, Sigma-Aldrich) or in PBS without calcium and magnesium (D8537, Sigma-Aldrich). […] Trogocytosis was measured as the acquisition of CAF-specific fluorescence in PDAC cells by flow cytometry on MACSQuant® VYB Flow Cytometer (Miltenyi Biotec) or FACScan analyzer (BD Biosciences). […]

PDAC cells = assay: Trogocytosis of CAF membranes by PDAC cells with cytoskeleton inhibitors; type: cell-based; details: cytoskeleton (actin polymerization) inhibitors
Experimental: To label cellular membranes, pairs of lipophilic fluorescent dyes were used according to the manufacturer's instructions in the following combinations: 1) adherent CAFs were stained with 1 μM PKH67 (Sigma-Aldrich), Panc-1 were stained in suspension with 10 μM CellTracker™ orange CMCMR (Thermo Fisher Scientific); 2) CAFs labeled with 0.5 μM BODIPY-cholesterol (Topfluor Cholesterol, #DO-016545, Avanti Polar Lipids) dissolved in 0.1 mM methyl-beta-cyclodextrin (#C4555, Sigma) with 2 μM cholesterol (#C8667, Sigma-Aldrich) in MEM media at 37° C. for 30 min in suspension; murine or human (Panc-1) PDAC cells were stained in suspension with CPD670 (#65-0840-85, Thermo Fisher Scientific). After labeling, CAFs were co-incubated for the indicated time intervals with PDAC cells in 12-well culture plates at ratio of 2:1 in 0.5% DMEM media. Co-cultures of CAFs and PDAC cells for 3 minutes on ice minutes were used as negative controls. In experiments assessing the effect of extracellular calcium on trogocytosis, cells were co-cultured in Phosphate Buffered Saline (PBS) containing calcium and magnesium (D8662, Sigma-Aldrich) or in PBS without calcium and magnesium (D8537, Sigma-Aldrich). After co-cultures, cells were collected and pelleted by centrifugation (5 min, 1500 rpm), resuspended in 10% formalin (Sigma) for 10 min at RT, washed and re-suspended in PBS/1% BSA. Trogocytosis was measured as the acquisition of CAF-specific fluorescence in PDAC cells by flow cytometry on MACSQuant® VYB Flow Cytometer (Miltenyi Biotec) or FACScan analyzer (BD Biosciences). Analysis of dual staining was done using FlowJo software (10.8.1, BD Biosciences). Live cells were gated based on FSC/SSC parameters, then single cells were gated based on SSC-A/SSC-H.

ANO6 = target: T1, ANO6 (Homo sapiens, UniProt Q4KMQ2); assay: Phosphatidylserine externalization assay in CAFs pulsed with ionomycin (annexin XII); type: cell-based; design: endogenous in cells; host or cells: human patient-derived, hTERT-immortalized pancreatic cancer-associated fibroblasts (CAFs)
T1 sequence (Q4KMQ2 1-910): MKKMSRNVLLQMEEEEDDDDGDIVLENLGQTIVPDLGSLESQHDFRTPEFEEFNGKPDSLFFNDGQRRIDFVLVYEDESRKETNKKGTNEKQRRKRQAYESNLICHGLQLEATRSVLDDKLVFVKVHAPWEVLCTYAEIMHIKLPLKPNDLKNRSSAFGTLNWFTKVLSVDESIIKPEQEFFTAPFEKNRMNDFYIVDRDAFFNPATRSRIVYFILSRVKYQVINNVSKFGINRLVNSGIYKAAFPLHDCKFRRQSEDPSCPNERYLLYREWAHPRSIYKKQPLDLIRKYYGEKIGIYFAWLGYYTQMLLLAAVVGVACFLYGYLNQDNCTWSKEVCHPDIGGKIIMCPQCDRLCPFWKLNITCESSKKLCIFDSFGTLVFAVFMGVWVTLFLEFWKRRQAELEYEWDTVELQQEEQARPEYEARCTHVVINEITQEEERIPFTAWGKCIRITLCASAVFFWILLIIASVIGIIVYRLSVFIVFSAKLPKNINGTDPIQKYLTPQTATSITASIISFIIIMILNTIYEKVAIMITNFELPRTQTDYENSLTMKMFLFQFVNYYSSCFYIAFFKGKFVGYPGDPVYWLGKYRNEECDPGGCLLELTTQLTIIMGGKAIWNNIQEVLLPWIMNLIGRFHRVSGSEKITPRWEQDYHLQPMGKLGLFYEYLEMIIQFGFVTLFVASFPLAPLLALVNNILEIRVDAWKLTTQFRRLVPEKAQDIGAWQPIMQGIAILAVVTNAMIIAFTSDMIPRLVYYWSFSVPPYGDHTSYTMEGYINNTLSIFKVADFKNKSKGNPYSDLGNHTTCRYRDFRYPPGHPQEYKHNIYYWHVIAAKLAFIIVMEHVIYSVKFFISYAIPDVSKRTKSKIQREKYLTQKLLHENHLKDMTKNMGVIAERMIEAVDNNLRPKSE
Experimental: CAFs were seeded in 24-well glass bottom plates (cat. #81156, Ibidi, Fitchburg, WI) at a density of 20,000 cells per well. Cells were then treated with niclosamide (1 μM) for 2 h. After one wash with FBS-free media at RT, cells were incubated with 250 μl of 1:100 annexin XII and 1:200 propidium iodide (pSIVA Abcam #ab129817), with or without 10 μM ionomycin. Cells were then incubated (5 min 37C) and imaged by fluorescence microscopy using a Nikon A1 camera (Nikon) linked to a Nikon Eclipse Ti2-E Inverted Microscope Imaging System (Nikon) for each channel. Fifteen images per well were acquired.

Panc-1 cells = assay: Trogocytosis of PKH67-labeled CAF membranes by Panc-1 cells in co-culture (flow cytometry); type: cell-based, human; details: 3 mM EGTA; mean fluorescence intensity normalized to vehicle
Experimental: as §1

OT-1 CTLs = assay: Trogocytosis assay of DiD-labeled CAFs co-cultured with OT-1 CTLs; type: cell-based, mouse
Experimental: For trogocytosis between OT-1 and CAF cells, T cells were isolated from splenocytes of OTI mice (strain 021880, The Jackson Laboratory) and stimulated with OVA257-264 (1 μg/ml) for 24 hours as described.
Cholesterol abundance in cell membranes was determined with Cholesterol Detection Assay Kit (Cayman, cat #10009779). Dissociated cells were fixed with fixative solution for 10 minutes, washed and labeled with Filipin III as per the manufacturer's instructions. Labeling with Filipin III was done by incubating in the dark for 30 minutes. After two washes for 5 minutes each, labeling was analyzed by flow cytometry (excitation: 340-380, emission: 385-470). The IFN-γ, Granzyme B and Foxp3 were detected using Foxp3/Transcription Factor Staining Buffer (00-5523-00, Thermo Fisher Scientific). Cells were stained for cell surface markers at 4° C. for 30 min followed by fixation and permeabilization buffer for 30 mins and two washes with permeabilization buffer and incubation with the indicated antibodies for 30 mins, washed with PBS twice followed by flow cytometry analysis.

[1] = tested on: store-operated calcium entry (SOCE) in CAFs; assay: Cytosolic calcium (Fluo4) in CAFs co-cultured with Panc-1 cells; type: cell-based, human; details: indicated concentrations of inhibitors; Fluo4 measured 5 minutes after addition
Experimental: CAF (5×10^3) and PDAC ([…]) cells were incubated (separately or in co-culture) on coverslips for 12 hrs before loading with the calcium indicator Fluo4-AM (5 μM; Invitrogen, Eugene, OR) in DMEM supplemented with HEPES and 0.5% FBS and incubated at 37° C., 5% CO2 for 30 min. Cells were washed in DMEM before incubating for an additional 30 minutes at 37° C., 5% CO2 to permit de-esterification of the dye. Fluorescence emissions at 506 nm in response to excitation at 494 nm were monitored for 60 cycles at a frequency of 0.33 Hz using a Leica SP8 laser scanning microscope (Buffalo Grove, IL) at 37° C. with 5% CO2. Intracellular Ca2+measurements are shown as absolute fluorescence obtained from 35-45 cells obtained using Leica LASX software. Averaged results±SEM from at least three independent experiments were analyzed by one-way ANOVA with GraphPad Prism. […]
CAF (5×10^3) cells were incubated on coverslips for 12 hrs before loading with the calcium indicator Fura2-AM (2 μM; Invitrogen, Eugene, OR) in cation-safe solution (107 mM NaCl, 7.2 mM KCl, 1.2 mM MgCl2, 11.5 mM glucose, 20 mM Hepes-NaOH, 1 mM CaCl2, pH 7.2) for 30 min at 24° C. as previously described. Cells were washed, and dye was allowed to de-esterify for a minimum of 30 min at 24° C. Cells were treated with Vehicle control, […] CM462, or 1 μM BTP2 along with 2 μM Thapsigargin for 10 minutes. After Ca2+ levels returned to their baseline, 1 mM Ca2+ was added. Ca2+ measurements were made using a Leica DMI 6000B fluorescence microscope controlled by Slidebook Software (Intelligent Imaging Innovations; Denver, CO). Fluorescence emission at 505 nm was monitored while alternating between 340 and 380 nm excitation wavelengths at a frequency of 0.67 Hz; intracellular Ca2+ measurements are shown as 340/380 nm ratios obtained from groups (20-25) of single cells.

**Q.** For bis-Zn-dipicolylamine [Zn-DPA], which “Uptake of BODIPY-labeled CAF membranes by KPCN349 cells” value (KPCN349 cells) is on record?
**A.** Its value is “significantly reduced uptake; also recorded: antagonizes trogocytosis”.

**Q.** What does the source list for C=C1[C@@H](C)[C@H]2[C@H](Cc3ccccc3)NC(=O)[C@]23[C@H](OC(C)=O)/C=C/[C@@](C)(O)C(=O)[C@@H](C)C/C=C/[C@H]3[C@@H]1O [Cytochalasin D]?
**A.** Uptake of CAF PMs by PDAC cells (PDAC cells): suppressed uptake of CAF PMs; Uptake of CAF PMs by PDAC cells (PDAC cells; listed as cytochalasin D): partially suppressed

**Q.** Which results are given for O=C(O)CN(CCOCCOCCN(CC(=O)O)CC(=O)O)CC(=O)O [EGTA]?
**A.** PtdSer externalization in CAFs with extracellular calcium chelator (ANO6; 1 μM ionomycin 5 minutes, 2 mM EGTA, annexin XII): blocked; Trogocytosis of CAF membranes / uptake of membrane lipids from human CAFs by Panc-1 cells (Panc-1 cells): inhibited

**Q.** What does the source list for C[C@H](CCCC(C)(C)O)[C@H]1CC[C@H]2[C@@H]3CC=C4C[C@@H](O)CC[C@]4(C)[C@H]3CC[C@]12C [25-hydroxycholesterol]?
**A.** Ability of CAFs to inhibit IFN-γ production by the CTLs (OT-1 CTLs; 12 h co-culture with CAFs): reduced the ability of CAFs to inhibit IFN-γ production; Transfer of DiD (CAF PM uptake) from CAFs to OT-1 CTLs (OT-1 CTLs; 12 h co-culture, niclosamide 1 μM, clofazimine 1 μM, anti-TIM3 Ab 4 μg/ml, 25-hydroxycholesterol 4 μM): effectively inhibited the transfer of DiD

**Q.** What does the source list for C[C@H](CCC(=O)O)C[C@H](C)C[C@H](C)C(=O)/C=C(\O)[C@H](C)C[C@H](C)C/C=C/[C@@H](C)[C@@H](O)[C@@H](C)[C@@H](O)C[C@@H]1CC[C@@](C)([C@H]2CC[C@@](C)([C@@H](C)O)O2)O1 [ionomycin]?
**A.** Cytoplasmic calcium in control CAFs (ANO6; calcium ionophore treatment): increased cytoplasmic calcium; PtdSer externalization to the PM in control CAFs (ANO6; calcium ionophore treatment): led these cells to externalize PtdSer

**Q.** COc1ccc2c(c1)CC[C@@H]1[C@@H]2CC[C@]2(C)[C@@H](NCCCCCCN3C(=O)C=CC3=O)CC[C@@H]12 [U73122] was tested. Which “Cytosolic Ca2+ elevation (Fluo4 signal) in CAFs engaged in cell-cell contacts with PDAC (Panc-1) cells” value [1] did it give?
**A.** The value was “no effect on Fluo4 signal”.
